From US20250270549A1, “MSI2 AS A THERAPEUTIC TARGET FOR THE TREATMENT OF MYOTONIC DYSTROPHY” (UNIVERSITAT DE VALÈNCIA, priority 2021, published 2025)

Columns and labels:
[1] = system: miR-7; assay: miR-7 quantification by RT-qPCR in MD1 cells; type: cell-based, human
Protocol: (§1) TDMs were cultured as previously described^1. After 4 days in differentiation medium (MDM), cells were transfected with a combination of two siRNAs (SEQ ID NO: 40 and 43) targeting MSI2 transcripts (final concentration 100 nM) using Lipofectamine RNAiMAX transfection reagent (Invitrogen, Madrid, Spain)) following the manufacturer's recommendations. After 48 h, the medium containing the siRNAs was replaced by fresh MDM. 24 h later, cells were collected. As a control, the same protocol was performed using 100 nM of a siRNA with a scrambled sequence (Cat #4390843 for negative control). Gapmers against MSI2 and agomiR-107 were transfected following the same protocol using two different concentrations, 30 and 150 nM in the case of Gapmers and 100 and 300 nM in the case of agomiR-107. To treat cells with the small molecule Ro-08-2750 (Tocris Cat. No. 2272, Bristol, UK)), cells were cultured as before. Briefly, after 96 h in MDM, the medium was supplemented with Ro-08-2750 at a final concentration of 10 μM (0.8% DMSO) or with the vehicle, DMSO 0.8%, for 48 h. Then cells were collected for further analyses.
(§2) All the procedures were performed as previously described^1.

[2] = system: P21; assay: P21 expression by RT-qPCR in MD1 muscle cells; type: cell-based, H. sapiens
Protocol: as §1, §2

[3] = system: TGFBR1; assay: TGFBR1 expression by RT-qPCR in MD1 muscle cells; type: cell-based, H. sapiens
Protocol: as §1, §2

[4] = system: MD1 TDMs; assay: Desmin immunostaining: myogenic fusion index and myotube diameter; type: cell-based, human
Protocol: as §1
(§3) Desmin immunostaining and fusion index and diameter determination were performed as previously described^3. For MSI2 immunodetection, 3.5×10^4 fibroblasts/well were seeded in 24 well plates. After 7 days of differentiation into myotubes, cells were fixed with 4% paraformaldehyde (PFA) for 15 min. After 3 washes with PBS-T (0.1%×-TritonX-100 in PBS 1×) cells were blocked (PBS-T, 1% BSA, 5% normal goat serum) for 1 h and incubated with rabbit anti-MSI2 antibody (1:100, Abcam, EP1305Y, Cambridge, UK) in blocking buffer for 48 h at 4° C. After three washes with PBS-T, cells were incubated for 1 h with goat anti-rabbit-FITC IgG (1:200, Sigma-Aldrich, St. Louis, Missouri) in blocking buffer. Finally, cells were washed thrice with PBS 1× and were counterstained and mounted with VECTASHIELD® mounting medium containing DAPI (Vector Laboratories, London, UK) to detect the nuclei. Images were taken in a confocal microscope LSM800 (Zeiss) at 400× magnification.

[5] = system: LC3; assay: LC3 immunostaining and LC3 puncta quantification; type: cell-based, human; conditions: DM1 myoblasts; 10 μM
Protocol: For LC3B immunodetection, cells were differentiated in MDM for 7 days (3×10^5 cells/well in 24-well plates). After 48 h of gapmer treatment, cells were fixed with 4% PFA in PBS for 15 min at room temperature. After fixation, cells were permeabilized with methanol 100% for 15 min at −20° C. and blocked with blocking buffer (PBS 1×, 0.5% BSA, 1% goat serum) for 1 h at room temperature. Cells were incubated overnight (O/N) with rabbit anti-LC3B (1:200, ab51520; Abcam, Cambridge, UK) diluted in blocking buffer. Then, samples were incubated with goat anti-rabbit IgG (H+L) Alexa Fluor Plus 594 (1:200; Invitrogen, Carlsbad, CA, USA) for 2 h. Between antibodies, cells were washed three times with PBS 1×. Finally, cells were washed three times with PBS and mounted in Vectashield (Vector Laboratories, London, UK) with […] DAPI.
Image analyses of LC3-stained myotubes were performed using the Ifdotmeter software following the authors' recommendations (see Rodríguez-Arribas, M., et al. (2016). IFDOTMETER: A New Software Application for Automated Immunofluorescence Analysis. J. Lab. Autom. 21, 246-259). Briefly, the quantification of the number of LC3 dots or LC3 puncta was performed with 15-20 images per condition. Total LC3 dots per image were normalized relative to the total area corresponding to all myotubes observed in each image. Myotube area was measured by using ImageJ software. Data were expressed as the number of LC3 dots/mm2.

[6] = system: DM1-14 and DM1-16 lines; assay: Fusion capacity of primary DM1 myoblasts (Desmin immunostaining); type: cell-based, human; conditions: primary myoblasts cultured for 7 days; 10 μM
Protocol: To treat primary myoblasts, CNT-10, DM1-14, and DM1-16 with the small molecule Ro 08-2750 cells were cultured as before. […] Information about biopsy donors is compiled in Table 1.
as §3

[7] = system: miR-7; assay: miR-7 quantification by RT-qPCR in MD1 cells; type: cell-based, human; remark: listed apart in the source
[8] = biological target: MSI2 (Homo sapiens, UniProt Q96DH6); assay: MSI2 protein quantification by Western blot; type: cell-based; design: endogenous in cells; host or cells: DM1 patient-derived transdifferentiated myotubes (TDMs, immortalized skin fibroblasts with conditional MyoD) and immortalized DM1 myoblasts; conditions: MD1 TDMs; Ro-08-2750 at 10 μM or the agomiR (100 and 300 nM)
Sequence of MSI2 (Q96DH6 whole entry): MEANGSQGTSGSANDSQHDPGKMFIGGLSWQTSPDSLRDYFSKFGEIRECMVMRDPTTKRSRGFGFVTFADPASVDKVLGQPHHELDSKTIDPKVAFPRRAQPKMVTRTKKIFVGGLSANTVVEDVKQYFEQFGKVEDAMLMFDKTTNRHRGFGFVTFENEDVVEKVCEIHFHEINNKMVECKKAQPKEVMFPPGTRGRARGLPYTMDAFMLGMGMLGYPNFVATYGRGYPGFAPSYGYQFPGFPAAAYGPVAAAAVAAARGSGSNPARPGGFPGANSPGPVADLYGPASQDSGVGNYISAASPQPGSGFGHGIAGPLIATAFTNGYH
Protocol: as §1
Protein extraction, quantification and immunodetection were performed as previously described^1,3. […] Quantification was performed using ImageJ software (NIH).

[9] = 10 μM, all cell lines (immortalized DM1 myoblasts, DM1-14, DM1-16)
[10] = MD1 TDMs, Ro-08-2750 10 μM / agomiR-107

Cc1cc2nc3c(=O)[nH]c(=O)nc-3n(C)c2cc1C=O [Ro 08-2750, 2,3,4,10-Tetrahydro-7,10-dimethyl-2,4-dioxobenzo[g]pteridine-8-carboxaldehyde]
miR-7 levels ([1]; MD1 TDMs, Ro-08-2750 at 10 μM or the agomiR): significant derepression | FC miR-7 expression respect to MD1, Low concentration ([1]; MD1 cells, ASO 30 nM, Ro 08-2750 10 μM, siRNA 100 nM, * significant): 2.52 fold | expression of P21 [2, 9]: rescued | P21 levels [2, 10]: not to produce a significant effect | expression of TGFBR1 ([3]; 10 μM, DM1-14): rescued | TGFBR1 levels [3, 10]: sufficient to reduce | diameter of the cells ([4]; DM1 TDMs, Ro 08-2750 10 μM): improved significantly | fusion index ([4]; MD1 TDMs, Ro-08-2750 (10 μM) or agomiR-107): significantly improved | autophagic markers (LC3 puncta, ATG4A, ATG7) [5]: reverse autophagic markers to a non-DM1 state | impaired fusion capacity phenotype [6]: dramatically reversed | expression of miR-7 [7, 9]: rescued | miR-7 biogenesis ([7]; DM1 TDMs, 3 μM): significantly de-repress | MSI2 levels at protein level [8]: significantly reduced
